This note sets out measurements from patent US20080187927A1, “USING HUG1 PROMOTER AND A REPORTER GENE TO DETECT GENOTOXICITY AND GENOPROTECTION” (priority 2006, published 2008).

Series [1] deals with SPY1101 (HUG1P-GFP). The text has this: Yeast having a HUG1-GFP promoter/reporter construct (called SPY1101; genotype is W303 MA:Ta/a ura3-52/ura3-52 his3::hisG/his3::hisG leu2::hisG/leu2::hisG HUG1P-GFP::HIS3/HUG1P-HUG1) were derived from S. cerevisiae strain SPY810 (wild-type yeast; genotype is W303 MATa/a ura3-52/ura3-52 his3::hisG/his3::hisG/leu2::hisG/leu2::hisG) using a PCR-based gene deletion method. Longtine M, et al., “Additional modules for versatile and economical PCR-based gene deletion and modification in Saccharomyces cerevisiae,” Yeast 14:953-961 (1998), incorporated herein by reference as if set forth in its entirety. Briefly, plasmid pFA6a-GFP(S65T)-His3MX6 (kindly provided by John Pringle at The University of North Carolina at Chapel Hill (Chapel Hill, N.C.); see also, Longtine et al., supra.), which contains GFP-S65T, was isolated from Escherichia coli DHα with a QIAprep Spin Miniprep Kit (Qiagen; Santa Clarita, Calif.).
Yeast from Example 1 (SPY1101) were exposed to the genotoxins shown in Table 2, which included alkylating agents, oxidizing agents, ribonucleotide reductase inhibitors, UV mimetic agents, glycopeptide antibiotics, quinoline-based alkaloids and ionizing radiation. Each genotoxin was added directly to a culture of SPY1101. Fresh phleomycin (Sigma) was aliquoted in water at a concentration of 20 mg/ml and stored at −20° C. until culture exposure. Likewise, CPT (Sigma) was aliquoted in dimethylsulfoxide (DMSO) at a concentration of 10 mg/ml and stored at −20° C. until culture exposure. All samples exposed to CPT were adjusted with DMSO, such that the final concentration of DMSO in the culture was 1% (v/v), regardless of CPT dose. γ-ray exposure was done using a Cs^137 source (exposure was 7 Gy/min and ended when the desired dose was reached). For all genotoxins (except γ-ray), exposure was continuous.
All DNA damage experiments included a minimum of three independent trials. SPY1101 were grown in rich medium (see, Sherman, supra) at 30° C. and with gentle shaking at 250 rpm to mid log-phase and then diluted to an OD600 of 0.1. After dilution, the culture was divided into 10 ml aliquots for exposure to one of the DNA damaging agents listed above. One culture aliquot was treated as a control and received no genotoxin, while the other aliquots each received one of seven different doses of the genotoxin, as listed in Table 2. In addition, SPY810 (wild-type control) were similarly treated. All cultures were then returned to 30° C. for incubation.
One hour after exposure, 1 ml of each culture was removed, and the OD600 was recorded to monitor culture growth. The cells were washed in PBS, re-suspended in fresh PBS to an OD600 of 0.2 and then placed in the dark on ice until flow cytometry analysis. This process was repeated every hour until eight hours had passed since the initial genotoxin exposure. The process was also repeated at twenty-four hours after initial genotoxin exposure.
Flow cytometry analysis was conducted as follows. For each replicate, at least 10,000 cells were analyzed for fluorescence using a flow cytometer (Becton Dickinson; Franklin Lakes, N.J.), and GFP induction analysis was performed with CellQuest™ and Flow-Jo software. Surviving cells were defined as whole cells (measured with light scattering) with intact cellular membranes (measured by exclusion of propidium iodide). All surviving cells were gated and used to measure GFP expression of the population. GFP expression histograms were prepared with WinMDI (available on the world wide web), using a live/dead gate based on propidium iodide exclusion. Histograms were created using a smoothing setting of 5.
SPY1101 were also exposed to general cell stress. All general cell stress experiments consisted of a minimum of three independent trials. SPY1101 were grown in rich medium at 30° C. and with gentle shaking at 250 rpm to mid log-phase and then diluted to an OD600 of 0.1. After dilution, the culture was divided into aliquots.

Series [2] relates to SPY810 (wild-type yeast). The series is described as follows: Fluorescence of wild-type control yeast SPY810 after genotoxin exposure. Format: cell-based, S. cerevisiae. To be noted: 0.01% MMS for six hours. Here is the method:
In addition, SPY810 (wild-type control) were similarly treated.
Flow cytometry analysis was conducted as follows. […] Histograms were created using a smoothing setting of 5.

Series [3] relates to SPY1103 (mre11aΔ). The series can be described thus: Viability of SPY1103 after genotoxin exposure. As to conditions: exposed to MMS. Format: cell-based, S. cerevisiae.
For series [4], the system named is SPY1103 (mre11aΔ, HUG1P-GFP).
Experimental: Yeast having a MRE11 deletion (SPY1103; also called mre11aΔ) were created from SPY1101.
(§1) Briefly, two hours after exposure, 1 ml of each culture-was removed and the OD600 was recorded to monitor cell proliferation. The cells were then washed in PBS and re-suspended to an OD600 of 0.2, and placed in the dark on ice until flow cytometry analysis. This process was repeated after 4, 6 and 8 hours after exposure.
In series [5] the test system is SPY1102 (mag1Δ, HUG1P-GFP).
Experimental: as §1
Series [6] relates to SPY1102 (mag1Δ). The series can be described thus: Viability of SPY1102 after genotoxin exposure. Format: cell-based, S. cerevisiae. As to conditions: after four hours of exposure.
In series [7] the test system is SPY1105 (mag1Δ/mre11bΔ, HUG1P-GFP).
Experimental: as §1

Structures are written as SMILES. Structures can show the parent of a compound that is named as a salt. Where two headings read alike, the source gives them in different places.

On to `C=O` [formaldehyde], for which the “dose-dependent GFP expression” value in series [1] (doses of Table 2, up to 24 h) is “No dose-dependent induction of GFP expression”.
As for `COS(C)(=O)=O` [MMS, methyl methanesulfonate], the “fluorescence of wild type control” value in series [2] is given as “did not fluoresce”. The Relative Fluorescence in series [1] (0.0005% MMS (dose-response)) amounted to 4; in series [1] (dose 0.0005%, exposure 6 h) it was 2.4; in series [4] (dose 0.0005%, exposure 6 h), 2.7; in series [5] (0.0005% MMS) it was 34; in series [5] (dose 0.0001%, exposure 4 h) it was 3.0; in series [7] (dose 0.0001%, exposure 4 h) it was 2.2. Also, in series [1] (0.0005% MMS, after 6 hours), the “increase of fluorescence compared to untreated cells” value stood at 2.4 fold. For the same molecule, the fluorescence upregulation in series [1] (0.005% MMS) amounted to 97 fold. In addition, in series [1] (0.01% MMS), the “optimum (peak) fluorescence” value is 1.48 fold. In addition, the “increase of fluorescence (minimum induction time)” value in series [1] (0.01% MMS, after 75 minutes) came to 3 fold. Further, in series [3], the “viability compared to SPY1101” value is given as “no difference in viability”. Further, the “fluorescence induction at peak fluorescence” value in series [4] (MMS, at its peak fluorescence) was 49 fold. This molecule also showed a peak fluorescence in series [5] (0.005% MMS) of 154 fold. Besides, the “viability compared to SPY810 or SPY1101” value in series [6] is on record as “less viable”. The molecule also came in with a relative fluorescence induction in series [7] (0.005% MMS (peak)) of 49 fold.
Take `Cl` [HCl]: in series [1] (1, 5, 10 or 15% (v/v) 1 N HCl, positive threshold >2 fold), the “maximum induction of GFP fluorescence” value was 1.5 fold.
